Data as given in patent US20170234853A1, “METHOD FOR DETERMINING THE STRUCTURAL PROFILE OF A FIBRIN CLOT REFLECTING THE STABILITY THEREOF, IN ORDER TO PREDICT THE RISK OF BLEEDING, THROMBOSIS OR RETHROMBOSIS” (DIAGNOSTICA STAGO, priority 2014, published 2017).

System: fibrin clot
Assay: Structural profile of fibrin clot, Protocol C on STA-R with tissue factor and plasminogen activator (TF+t-PA)
Format: biochemical
Experimental: Protocol C (With t-PA, Method on STA-R® with Tissue Factor and Plasminogen Activator):
To 8 cuvettes of the STA-R® Evolution Expert Series automated device (Stago), are added, simultaneously by the instrument: • 200 μl of a sample of pure plasma, • 50 μl of a [TF 2 to 5 pM final concentration+PL 4 μM final concentration+tPA 0.1 to 0.2 μg/ml final concentration] mixture.
The automated device agitates by means of the arm, and carries out an incubation for 300 seconds at 37° C.
It then adds 50 μl of CaCl2 at a final concentration of 16.7 mM, and agitates by means of the needle of the initiating reagent.
Finally, the automated device measures the number of protofibrils at the 2 wavelengths of 540 nm and 780 nm as a function of time for 30 minutes.
To 8 cuvettes of the STA-R® Evolution Expert Series automated device (Stago), are added, simultaneously by the instrument: • 200 μl of sample of pure plasma from 9 patients with normal hemostatis results, of a frozen plasma deficient in PAI-1, of 3 control plasmas at 0, 20 and 40 AU/ml of PAI-1, of a protein S-depleted plasma, of a TFPI-depleted plasma and of 3 plasmas with an overload of rivaroxaban at 0, 100 and 200 ng/ml, • 50 μl of a [TF 2 to 5 pM final concentration+PL 4 μM final concentration+t-PA 150 ng/ml] mixture.
It then adds 50 μl of CaCl2 at a final concentration of 16.7 mM, and agitates by means of the needle.

O=C(NC[C@H]1CN(c2ccc(N3CCOCC3=O)cc2)C(=O)O1)c1ccc(Cl)s1 [rivaroxaban]
downward slope of the protofibril plateau (plasma containing rivaroxaban, TF + t-PA 150 ng/ml): all the greater the faster the lysis | protofibril plateau (duration), reflecting the stability of the clot (plasmas with an overload of rivaroxaban at 0, 100 and 200 ng/ml, TF 2 to 5 pM, t-PA 150 ng/ml, 30 minutes): shortened proportionally to the concentration
